One assay has as its target T1, Tyk2 (Homo sapiens, UniProt P29597).
T1 construct: purchased Invitrogen
The assay is described as follows: Tyk2 enzyme inhibition test (LANCE method). Type of assay: biochemical. The note with it: for inhibition at 1 µM: read-out: Inhibitory rate (%) Tyk2 1 μM. In outline:
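Recombinant Tyk2 (375 ng/mL stock) with ULight-JAK1 peptide (300 nM stock) and ATP (30 μM stock) in HEPES pH 7.5/MgCl2/EGTA/DTT buffer, 1 h at room temperature. Stopped with EDTA plus Eu-anti-phosphotyrosine antibody; TR-FRET read at 665 nm after 1 h. No-enzyme wells define 100% inhibition.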

The next assay has as its target T2, JAK1 (Homo sapiens, UniProt P23458).
T2 construct: purchased Invitrogen
Description: JAK1 enzyme inhibition test (LANCE method). Type of assay: biochemical. The note with it: for inhibition at 1 µM: read-out: Inhibitory rate (%) JAK1 1 μM; for inhibition at 10 µM: read-out: Inhibitory rate (%) JAK1 10 μM. The method in brief:
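TR-FRET (LANCE) kinase assay using JAK1 at 187.5 ng/mL, ULight-JAK1 peptide at 300 nM and ATP at 150 μM, given as solution concentrations before mixing. Buffer was 50 mM HEPES pH 7.5 with 10 mM MgCl2 and 2 mM DTT, and the reaction ran 1 h at room temperature. Eu anti-phosphotyrosine signal at 665 nm was expressed relative to a no-enzyme well, taken as 100% inhibition.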
Background: Time-resolved FRET reads energy transfer from a long-lived donor to a nearby acceptor.

Where [1] appears, read: test compound 10 μM (Ex. 182-220), beside Tyk2 1 μM.

Read-outs that look alike come from different tables or passages of the source.

T1 sequence (P29597 whole entry): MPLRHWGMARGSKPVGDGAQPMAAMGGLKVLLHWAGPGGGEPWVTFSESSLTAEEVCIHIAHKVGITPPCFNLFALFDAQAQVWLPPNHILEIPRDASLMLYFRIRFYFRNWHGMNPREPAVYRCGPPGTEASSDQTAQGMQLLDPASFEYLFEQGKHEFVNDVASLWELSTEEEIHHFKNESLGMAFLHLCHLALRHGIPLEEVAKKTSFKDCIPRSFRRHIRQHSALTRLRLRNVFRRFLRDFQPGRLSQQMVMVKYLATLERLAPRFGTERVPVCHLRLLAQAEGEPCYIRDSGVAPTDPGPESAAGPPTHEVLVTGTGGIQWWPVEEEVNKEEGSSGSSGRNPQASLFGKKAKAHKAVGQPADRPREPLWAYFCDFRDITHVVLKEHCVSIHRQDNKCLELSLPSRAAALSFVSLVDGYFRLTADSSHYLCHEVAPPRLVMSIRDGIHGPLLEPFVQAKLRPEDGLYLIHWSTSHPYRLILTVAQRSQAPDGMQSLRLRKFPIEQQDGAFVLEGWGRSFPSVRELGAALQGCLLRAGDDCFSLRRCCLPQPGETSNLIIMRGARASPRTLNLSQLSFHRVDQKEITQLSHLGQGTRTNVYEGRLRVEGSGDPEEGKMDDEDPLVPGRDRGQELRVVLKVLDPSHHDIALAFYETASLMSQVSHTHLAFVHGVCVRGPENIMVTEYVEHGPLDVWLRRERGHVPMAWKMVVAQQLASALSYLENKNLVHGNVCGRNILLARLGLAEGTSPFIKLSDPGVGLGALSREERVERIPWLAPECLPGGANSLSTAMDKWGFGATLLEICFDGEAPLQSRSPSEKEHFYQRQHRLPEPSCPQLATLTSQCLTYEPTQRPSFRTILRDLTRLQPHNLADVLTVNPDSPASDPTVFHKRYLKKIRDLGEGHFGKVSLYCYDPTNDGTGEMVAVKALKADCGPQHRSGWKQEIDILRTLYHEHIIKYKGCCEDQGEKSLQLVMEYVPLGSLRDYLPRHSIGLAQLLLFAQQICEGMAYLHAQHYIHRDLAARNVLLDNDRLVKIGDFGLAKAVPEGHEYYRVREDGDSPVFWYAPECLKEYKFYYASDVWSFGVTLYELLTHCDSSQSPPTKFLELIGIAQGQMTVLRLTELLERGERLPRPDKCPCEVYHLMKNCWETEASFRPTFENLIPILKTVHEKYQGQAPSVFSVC
T2 sequence (P23458 whole entry): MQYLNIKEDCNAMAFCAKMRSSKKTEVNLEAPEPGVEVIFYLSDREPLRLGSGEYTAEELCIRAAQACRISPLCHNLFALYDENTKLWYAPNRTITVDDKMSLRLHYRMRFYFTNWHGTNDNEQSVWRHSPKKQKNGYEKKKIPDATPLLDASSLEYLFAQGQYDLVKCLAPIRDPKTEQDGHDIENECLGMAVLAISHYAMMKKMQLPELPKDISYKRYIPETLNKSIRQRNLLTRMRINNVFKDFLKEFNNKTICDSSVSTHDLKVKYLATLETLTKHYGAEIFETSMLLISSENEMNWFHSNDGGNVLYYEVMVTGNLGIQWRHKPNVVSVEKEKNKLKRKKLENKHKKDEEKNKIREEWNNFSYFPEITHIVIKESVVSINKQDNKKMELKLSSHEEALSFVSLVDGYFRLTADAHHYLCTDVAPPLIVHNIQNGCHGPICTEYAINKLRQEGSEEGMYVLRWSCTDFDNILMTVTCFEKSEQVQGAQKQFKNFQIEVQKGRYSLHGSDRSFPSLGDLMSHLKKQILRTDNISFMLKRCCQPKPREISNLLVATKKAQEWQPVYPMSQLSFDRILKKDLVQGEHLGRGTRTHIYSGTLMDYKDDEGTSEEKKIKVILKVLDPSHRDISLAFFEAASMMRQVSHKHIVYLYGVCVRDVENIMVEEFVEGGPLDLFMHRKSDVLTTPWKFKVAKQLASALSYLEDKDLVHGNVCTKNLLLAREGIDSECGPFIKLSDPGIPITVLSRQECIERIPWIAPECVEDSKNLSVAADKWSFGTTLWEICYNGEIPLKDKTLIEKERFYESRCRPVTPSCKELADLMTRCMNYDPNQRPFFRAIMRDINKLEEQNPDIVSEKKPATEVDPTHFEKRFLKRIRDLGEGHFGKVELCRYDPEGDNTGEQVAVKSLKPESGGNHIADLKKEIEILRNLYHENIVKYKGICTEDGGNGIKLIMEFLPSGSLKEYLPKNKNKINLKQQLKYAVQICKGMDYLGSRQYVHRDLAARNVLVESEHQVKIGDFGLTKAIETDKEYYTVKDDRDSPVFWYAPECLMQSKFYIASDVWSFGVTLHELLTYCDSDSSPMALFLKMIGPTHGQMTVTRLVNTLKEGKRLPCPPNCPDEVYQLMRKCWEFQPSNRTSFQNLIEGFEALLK

Take `CC(C)(C)n1nc(Nc2ccccc2)c2c(=O)[nH]ccc21` [Example 250, 3-anilino-1-tert-butyl-1,5-dihydro-4H-pyrazolo[4,3-c]pyridin-4-one]: the inhibition at 1 µM at Tyk2 (test compound 1 μM) was 69%; at JAK1 (test compound 1 μM), 93%.

For the compound `O=c1[nH]ccc2c1c(-c1ccc(N3CCOCC3)cc1)nn2-c1c(F)cc(F)cc1F` [Example 308, 3-(4-(morpholin-4-yl)phenyl)-1-(2,4,6-trifluorophenyl)-1,5-dihydro-4H-pyrazolo[4,3-c]pyridin-4-one], the inhibition at 1 µM on Tyk2 (test compound 1 μM) amounted to 98%; on JAK1 (test compound 1 μM) it was 91%.

On to `NS(=O)(=O)c1cccc(Nc2nn(C3CCCC3)c3cc[nH]c(=O)c23)c1` [Example 284, 3-((1-cyclopentyl-4-oxo-4,5-dihydro-1H-pyrazolo[4,3-c]pyridin-3-yl)amino)benzenesulfonamide], for which the inhibition at 1 µM at Tyk2 (test compound 1 μM) was found to be 96%; at JAK1 (test compound 1 μM), 99%.

As to `O=C1CCC(=O)N1Cc1ccc(-c2nn(-c3c(F)cccc3F)c3c(Cl)c[nH]c(=O)c23)cc1` [Example 219, 1-(4-(7-chloro-1-(2,6-difluorophenyl)-4-oxo-4,5-dihydro-1H-pyrazolo[4,3-c]pyridin-3-yl)benzyl)pyrrolidine-2,5-dione], on Tyk2 (test compound 1 μM), the inhibition at 1 µM is 98%. The inhibition at 10 µM at JAK1 (setting [1]) came out at 82%.

On to `O=c1[nH]ccc2c1c(-c1ccsc1)cn2C1CCCC1` [Example 5, 1-cyclopentyl-3-(3-thienyl)-1,5-dihydro-4H-pyrrolo[3,2-c]pyridin-4-one], for which the inhibition at 1 µM at Tyk2 (test compound 1 μM) came to 96%; at JAK1 (test compound 1 μM), 97%.

With `CC(=O)Nc1cccc(-c2cn(C3CCCC3)c3c(C#N)c[nH]c(=O)c23)c1` [Example 130, N-(3-(7-cyano-1-cyclopentyl-4-oxo-4,5-dihydro-1H-pyrrolo[3,2-c]pyridin-3-yl)phenyl)acetamide], the inhibition at 1 µM at Tyk2 (test compound 1 μM) turned out to be 96%; on JAK1 (test compound 1 μM), 76%.

`NC(=O)Cc1ccc(-c2nn(-c3c(F)cccc3F)c3c(Cl)c[nH]c(=O)c23)cc1` [Example 124, 2-(4-(7-chloro-1-(2,6-difluorophenyl)-4-oxo-4,5-dihydro-1H-pyrazolo[4,3-c]pyridin-3-yl)phenyl)acetamide]: the figures for the inhibition at 1 µM on Tyk2 (test compound 1 μM) and at JAK1 (test compound 1 μM) were 98% and 89%, respectively.

With `O=C(O)c1cc(-c2nn(C3CCOCC3)c3cc[nH]c(=O)c23)cs1` [Example 23, 4-(4-oxo-1-(tetrahydro-2H-pyran-4-yl)-4,5-dihydro-1H-pyrazolo[4,3-c]pyridin-3-yl)thiophene-2-carboxylic acid], the inhibition at 1 µM at Tyk2 (test compound 1 μM) and on JAK1 (test compound 1 μM) was 98% each time.

`N#CCc1cccc(-c2nn(C3CCCC3)c3cc[nH]c(=O)c23)c1` [Example 128, (3-(1-cyclopentyl-4-oxo-4,5-dihydro-1H-pyrazolo[4,3-c]pyridin-3-yl)phenyl)acetonitrile]: the inhibition at 1 µM at Tyk2 (test compound 1 μM) and at JAK1 (test compound 1 μM) was 93% in each case.

Turning to `NC(=O)c1cc(F)c(-n2nc(-c3ccc(N4CCOCC4)cc3)c3c(=O)[nH]ccc32)c(F)c1` [Example 251, 3,5-difluoro-4-(3-(4-(morpholin-4-yl)phenyl)-4-oxo-4,5-dihydro-1H-pyrazolo[4,3-c]pyridin-1-yl)benzamide], the inhibition at 1 µM was 99% at Tyk2 (test compound 1 μM) and 96% on JAK1 (test compound 1 μM).

Consider `O=c1[nH]cc(Cl)c2c1c(-c1cnn(C3CCOCC3)c1)nn2-c1c(F)cccc1F` [Example 205, 7-chloro-1-(2,6-difluorophenyl)-3-(1-(tetrahydro-2H-pyran-4-yl)-1H-pyrazol-4-yl)-1,5-dihydro-4H-pyrazolo[4,3-c]pyridin-4-one], for which the inhibition at 1 µM at Tyk2 (test compound 1 μM) came to 97%. Also, the inhibition at 10 µM at JAK1 (setting [1]) was 34%.

Consider `O=C(NCCO)c1ccc(-c2nn(-c3c(F)cccc3F)c3c(Cl)c[nH]c(=O)c23)cc1` [Example 232, 4-(7-chloro-1-(2,6-difluorophenyl)-4-oxo-4,5-dihydro-1H-pyrazolo[4,3-c]pyridin-3-yl)-N-(2-hydroxyethyl)benzamide], for which the inhibition at 1 µM at Tyk2 (test compound 1 μM) was found to be 100%; on JAK1 (test compound 1 μM) it was 60%.

As to `O=C1CCCN1Cc1ccc(-c2nn(-c3c(F)cccc3F)c3c(Cl)c[nH]c(=O)c23)cc1` [Example 224, 7-chloro-1-(2,6-difluorophenyl)-3-(4-((2-oxopyrrolidin-1-yl)methyl)phenyl)-1,5-dihydro-4H-pyrazolo[4,3-c]pyridin-4-one], the inhibition at 1 µM is 99% at Tyk2 (test compound 1 μM) and 78% on JAK1 (test compound 1 μM).

`NC(=O)c1cc(-c2nn([C@H]3CC[C@H](N)CC3)c3cc[nH]c(=O)c23)cs1` [Example 299, 4-(1-(trans-4-aminocyclohexyl)-4-oxo-4,5-dihydro-1H-pyrazolo[4,3-c]pyridin-3-yl)thiophene-2-carboxamide]: the inhibition at 1 µM on Tyk2 (test compound 1 μM) and at JAK1 (test compound 1 μM) was 99% in each case.

Take `CNC(=O)c1cc(-c2nn(-c3c(F)cccc3F)c3c(Br)c[nH]c(=O)c23)cs1` [Example 145, 4-(7-bromo-1-(2,6-difluorophenyl)-4-oxo-4,5-dihydro-1H-pyrazolo[4,3-c]pyridin-3-yl)-N-methylthiophene-2-carboxamide]: the inhibition at 1 µM on Tyk2 (test compound 1 μM) stood at 100%; at JAK1 (test compound 1 μM), 99%.

As to `Cc1ccccc1-n1nc(-c2ccc(S(N)(=O)=O)cc2)c2c(=O)[nH]ccc21` [Example 211, 4-(1-(2-methylphenyl)-4-oxo-4,5-dihydro-1H-pyrazolo[4,3-c]pyridin-3-yl)benzenesulfonamide], the inhibition at 1 µM on Tyk2 (test compound 1 μM) amounted to 98%. At JAK1 (setting [1]), the inhibition at 10 µM was determined as 99%.

As to `NS(=O)(=O)c1ccc(-c2nn(C3CCOC3)c3cc[nH]c(=O)c23)cc1` (stereo not drawn) [Example 83, 4-(4-oxo-1-(tetrahydrofuran-3-yl)-4,5-dihydro-1H-pyrazolo[4,3-c]pyridin-3-yl)benzenesulfonamide], at Tyk2 (test compound 1 μM), the “Inhibitory rate (%) Tyk2 1 μM” value worked out at 89%. Besides, the “Inhibitory rate (%) JAK1 1 μM” value at JAK1 (test compound 1 μM) is 97%.

As to `Cc1ccccc1-c1cn(-c2csc(C(N)=O)c2)c2c(=O)[nH]cc(C#N)c12` [Example 102, 4-(4-cyano-3-(2-methylphenyl)-7-oxo-6,7-dihydro-1H-pyrrolo[2,3-c]pyridin-1-yl)thiophene-2-carboxamide], the inhibition at 1 µM stood at 94% at Tyk2 (test compound 1 μM) and 67% at JAK1 (test compound 1 μM).

Regarding `N#CCc1cccc(-c2nn(-c3c(F)cccc3F)c3c(Br)c[nH]c(=O)c23)c1` [Example 146, (3-(7-bromo-1-(2,6-difluorophenyl)-4-oxo-4,5-dihydro-1H-pyrazolo[4,3-c]pyridin-3-yl)phenyl)acetonitrile], the inhibition at 1 µM on Tyk2 (test compound 1 μM) was 98%; on JAK1 (test compound 1 μM) it was 69%.

For `NC(=O)COc1ccc(-c2nn(-c3c(F)cccc3F)c3c(Cl)c[nH]c(=O)c23)cc1` [Example 169, 2-(4-(7-chloro-1-(2,6-difluorophenyl)-4-oxo-4,5-dihydro-1H-pyrazolo[4,3-c]pyridin-3-yl)phenoxy)acetamide], the inhibition at 1 µM was 99% at Tyk2 (test compound 1 μM) and 79% on JAK1 (test compound 1 μM).

For the compound `NC(=O)c1cc(-c2nn(C3CCCC3)c3cc[nH]c(=O)c23)cs1` [Example 13, 4-(1-cyclopentyl-4-oxo-4,5-dihydro-1H-pyrazolo[4,3-c]pyridin-3-yl)thiophene-2-carboxamide], the inhibition at 1 µM at Tyk2 (test compound 1 μM) and at JAK1 (test compound 1 μM) was 99% throughout.

With `O=c1[nH]cc(Cl)c2c1c(-c1cccc(OCCO)c1)nn2-c1c(F)cccc1F` [Example 168, 7-chloro-1-(2,6-difluorophenyl)-3-(3-(2-hydroxyethoxyl)phenyl)-1,5-dihydro-4H-pyrazolo[4,3-c]pyridin-4-one], the inhibition at 1 µM at Tyk2 (test compound 1 μM) amounted to 97%; on JAK1 (test compound 1 μM), 46%.

As for `CC(C)(C)n1nc(-c2ccc(S(N)(=O)=O)cc2)c2c(=O)[nH]ccc21` [Example 86, 4-(1-tert-butyl-4-oxo-4,5-dihydro-1H-pyrazolo[4,3-c]pyridin-3-yl)benzenesulfonamide], the results for the inhibition at 1 µM at Tyk2 (test compound 1 μM) and at JAK1 (test compound 1 μM) were 85% and 94%, respectively.

As to `CCC(CC)n1cc(-c2csc(C(N)=O)c2)c2c(=O)[nH]ccc21` [Example 8, 4-(4-oxo-1-(pentan-3-yl)-4,5-dihydro-1H-pyrrolo[3,2-c]pyridin-3-yl)thiophene-2-carboxamide], the inhibition at 1 µM on Tyk2 (test compound 1 μM) and at JAK1 (test compound 1 μM) was 98% in each case.

`CC(C)(C)n1nc(N)c2c(=O)[nH]ccc21` [Example 264, 3-amino-1-tert-butyl-1,5-dihydro-4H-pyrazolo[4,3-c]pyridin-4-one]: the inhibition at 10 µM on Tyk2 (test compound 10 μM, read-out: Inhibitory rate (%) Tyk2 10 μM) stood at 12%; on JAK1 (test compound 10 μM) it was 44%.

Turning to `O=c1[nH]ccc2c1c(-c1ccc(N3CCOCC3)cc1)nn2-c1c(F)cccc1F` [Example 179, 1-(2,6-difluorophenyl)-3-(4-(morpholin-4-yl)phenyl)-1,5-dihydro-4H-pyrazolo[4,3-c]pyridin-4-one], the inhibition at 1 µM at Tyk2 (test compound 1 μM) was determined as 100%; on JAK1 (test compound 1 μM) it was 94%.

Consider `CN1CCN(c2ccc(-c3nn(-c4c(F)cccc4F)c4c(Cl)c[nH]c(=O)c34)cc2)C1=O` [Example 239, 7-chloro-1-(2,6-difluorophenyl)-3-(4-(3-methyl-2-oxoimidazolidin-1-yl)phenyl)-1,5-dihydro-4H-pyrazolo[4,3-c]pyridin-4-one], for which the inhibition at 1 µM on Tyk2 (test compound 1 μM) was 99%; at JAK1 (test compound 1 μM), 46%.

Values taken from patent US9371320B2, “Heterocyclic compound” (TAKEDA PHARMACEUTICAL COMPANY LIMITED, priority 2012, dated 2016).
